The structures appear in SMILES notation. Several values for one entry are separate records, joined by “and”; a condition that tells them apart may be missing. Equal values may be shown once. Toxic doses and inconclusive results are not listed.

For the assay, the system named is CD2F1 mice, L1210 leukemia ip, survival T/C. Description: NCI In Vivo Anticancer Drug Screen. Data for tumor model L1210 Leukemia (intraperitoneal) in CD2F1 (CDF1) mice. The note with it: higher = longer survival. In short, it runs like this:
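Implant tumor; dose compound or vehicle; measure endpoint in both groups; report treated divided by control.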

The mark [1] stands for this setting: endpoint: mean survival time, dose: 25.0 mg/kg/injection, schedule: Q04DX003 (ip), vehicle: saline with Tween-80.
Where [2] appears, read: endpoint: mean survival time, dose: 50.0 mg/kg/injection, schedule: Q04DX003 (ip), vehicle: saline with Tween-80.
The mark [3] stands for this setting: endpoint: mean survival time, dose: 100.0 mg/kg/injection, schedule: Q04DX003 (ip), vehicle: saline with Tween-80.
The mark [4] stands for this setting: endpoint: mean survival time, dose: 200.0 mg/kg/injection, schedule: Q04DX003 (ip), vehicle: saline with Tween-80.
Setting [5] is: endpoint: mean survival time, dose: 400.0 mg/kg/injection, schedule: Q04DX003 (ip), vehicle: saline with Tween-80.
The mark [6] stands for this setting: endpoint: mean survival time, dose: 200.0 mg/kg/injection, schedule: Q04DX002 (ip), vehicle: saline with Tween-80.
The mark [7] stands for this setting: endpoint: mean survival time, dose: 100.0 mg/kg/injection, schedule: Q01DX001 (ip), vehicle: saline with Tween-80.
Setting [8] is: endpoint: mean survival time, dose: 200.0 mg/kg/injection, schedule: Q01DX001 (ip), vehicle: saline with Tween-80.
The mark [9] stands for this setting: endpoint: mean survival time, dose: 400.0 mg/kg/injection, schedule: Q01DX001 (ip), vehicle: saline with Tween-80.

Take `C=C1C(=O)OC2CC/C=C\CCC12` (configuration not stated): the T/C (endpoint: mean survival time, dose: 50.0 mg/kg/injection, schedule: Q01DX009 (ip), vehicle: saline) is 105 % of control; the T/C (endpoint: mean survival time, dose: 100.0 mg/kg/injection, schedule: Q01DX009 (ip), vehicle: saline) was 97 % of control; the T/C (endpoint: mean survival time, dose: 200.0 mg/kg/injection, schedule: Q01DX009 (ip), vehicle: saline) was 102 % of control.

With `CC(C(=O)N1c2ccccc2Sc2ccccc21)[N+](C)(C)C` (configuration not stated), the T/C was 97 % of control (endpoint: mean survival time, dose: 12.5 mg/kg/injection, schedule: Q04DX003 (ip), vehicle: saline); 101 % of control (endpoint: mean survival time, dose: 25.0 mg/kg/injection, schedule: Q04DX003 (ip), vehicle: saline); 101 % of control (endpoint: mean survival time, dose: 50.0 mg/kg/injection, schedule: Q04DX003 (ip), vehicle: saline).

Take `CC(C)CCNC(=O)CI`: the T/C is 101 % of control (endpoint: mean survival time, dose: 100.0 mg/kg/injection, schedule: Q01DX001 (ip), vehicle: saline) and 95 % of control (endpoint: mean survival time, dose: 200.0 mg/kg/injection, schedule: Q01DX001 (ip), vehicle: saline).

Take `O=C(Nc1cccc2ccccc12)SCc1ccccc1`: the T/C runs as follows: (endpoint: mean survival time, dose: 50.0 mg/kg/injection, schedule: Q04DX002 (ip), vehicle: Klucel (hydroxypropylcellulose) (HPC)) 88 % of control; (endpoint: mean survival time, dose: 100.0 mg/kg/injection, schedule: Q04DX002 (ip), vehicle: Klucel (hydroxypropylcellulose) (HPC)) 106 % of control; (endpoint: mean survival time, dose: 200.0 mg/kg/injection, schedule: Q04DX002 (ip), vehicle: Klucel (hydroxypropylcellulose) (HPC)) 95 % of control.

Turning to `CCOC(=O)C([NH-])CC[NH-].[Cl][Pt+2][Cl]` (configuration not stated), the T/C was 182 % of control (endpoint: mean survival time, dose: 12.5 mg/kg/injection, schedule: Q04DX003 (ip), vehicle: saline with Tween-80); 210 % of control under setting [1]; 93 % of control under setting [2].

Take `CC(=O)OC(N=Nc1ccccc1)(c1ccccc1)c1ccccc1`: the T/C was 98 % of control under setting [3], 92 % of control under setting [4] and 93 % of control under setting [5].

`COc1ccc2c(NCCCCCCNc3c4ccccc4nc4cc(OC)ccc34)c3ccccc3nc2c1`: the T/C is, setting by setting: (endpoint: mean survival time, dose: 0.07 mg/kg/injection, schedule: Q01DX009 (ip), vehicle: other) 102 % of control; (endpoint: mean survival time, dose: 0.15 mg/kg/injection, schedule: Q01DX009 (ip), vehicle: other) 102 % of control; (endpoint: mean survival time, dose: 0.16 mg/kg/injection, schedule: Q01DX009 (ip), vehicle: lactic acid) 124 % of control; (endpoint: mean survival time, dose: 0.31 mg/kg/injection, schedule: Q01DX009 (ip), vehicle: lactic acid) 110 % of control; (endpoint: mean survival time, dose: 0.31 mg/kg/injection, schedule: Q01DX009 (ip), vehicle: other) 105 % of control; (endpoint: mean survival time, dose: 0.62 mg/kg/injection, schedule: Q01DX009 (ip), vehicle: lactic acid) 113 % of control. The T/C (endpoint: mean survival time, dose: 0.63 mg/kg/injection, schedule: Q01DX009 (ip), vehicle: other) is 100 % of control; the T/C (endpoint: mean survival time, dose: 1.25 mg/kg/injection, schedule: Q01DX009 (ip), vehicle: lactic acid) was 121 % of control and 122 % of control; the T/C (endpoint: mean survival time, dose: 1.25 mg/kg/injection, schedule: Q01DX009 (ip), vehicle: other) was 107 % of control; the T/C (endpoint: mean survival time, dose: 2.5 mg/kg/injection, schedule: Q01DX009 (ip), vehicle: lactic acid) is 122 % of control; the T/C (endpoint: mean survival time, dose: 5.0 mg/kg/injection, schedule: Q01DX009 (ip), vehicle: lactic acid) was 116 % of control; the T/C (endpoint: mean survival time, dose: 10.0 mg/kg/injection, schedule: Q01DX009 (ip), vehicle: lactic acid) is 122 % of control.

For `O=C(Cn1[nH]c(=O)ccc1=O)c1ccccc1`, the T/C runs as follows: (endpoint: mean survival time, dose: 12.5 mg/kg/injection, schedule: Q04DX002 (ip), vehicle: saline with Tween-80) 95 % of control; (endpoint: mean survival time, dose: 25.0 mg/kg/injection, schedule: Q04DX002 (ip), vehicle: saline with Tween-80) 100 % of control; (endpoint: mean survival time, dose: 50.0 mg/kg/injection, schedule: Q04DX002 (ip), vehicle: saline with Tween-80) 91 % of control and 92 % of control; under setting [6], 94 % of control.

Consider `COc1nc(NC2OCC(O)C(O)C2O)cc(=O)n1C` (configuration not stated), for which the T/C (endpoint: median survival time, dose: 12.5 mg/kg/injection, schedule: Q01DX005 (ip), vehicle: saline) is 102 % of control; the T/C (endpoint: median survival time, dose: 25.0 mg/kg/injection, schedule: Q01DX005 (ip), vehicle: saline) was 101 % of control; the T/C (endpoint: median survival time, dose: 50.0 mg/kg/injection, schedule: Q01DX005 (ip), vehicle: saline) is 100 % of control; the T/C (endpoint: median survival time, dose: 100.0 mg/kg/injection, schedule: Q01DX005 (ip), vehicle: saline) was 105 % of control; the T/C (endpoint: median survival time, dose: 200.0 mg/kg/injection, schedule: Q01DX005 (ip), vehicle: saline) was 98 % of control.

Turning to `Cc1cn(C2CC3OP(=O)(C(C)(C)C#N)OCC3O2)c(=O)[nH]c1=O` (configuration not stated), the T/C was 101 % of control (endpoint: median survival time, dose: 12.5 mg/kg/injection, schedule: Q01DX005 (ip), vehicle: distilled water + Tween-80); 100 % of control (endpoint: median survival time, dose: 25.0 mg/kg/injection, schedule: Q01DX005 (ip), vehicle: distilled water + Tween-80); 103 % of control (endpoint: median survival time, dose: 50.0 mg/kg/injection, schedule: Q01DX005 (ip), vehicle: distilled water + Tween-80); 100 % of control (endpoint: median survival time, dose: 100.0 mg/kg/injection, schedule: Q01DX005 (ip), vehicle: distilled water + Tween-80); 97 % of control (endpoint: median survival time, dose: 200.0 mg/kg/injection, schedule: Q01DX005 (ip), vehicle: distilled water + Tween-80).

As for `CCC(/C=C1\Oc2ccc(-c3ccccc3)cc2N1CC)=C\c1oc2ccc(-c3ccccc3)cc2[n+]1CC`, where the note is “endpoint: mean survival time, dose: 4.4 mg/kg/injection, schedule: Q01DX009 (ip), vehicle: other”, the T/C is 117 % of control.

Consider `C/C(=N/O)c1cccc([N+](=O)[O-])c1`, for which the T/C is 95 % of control (endpoint: mean survival time, dose: 100.0 mg/kg/injection, schedule: Q01DX009 (ip), vehicle: saline with Tween-80); 104 % of control under setting [3]; 98 % of control (endpoint: mean survival time, dose: 200.0 mg/kg/injection, schedule: Q01DX009 (ip), vehicle: saline with Tween-80); 95 % of control under setting [4]; 103 % of control under setting [5].

As to `O=C(O)c1cccs1`, the T/C was 100 % of control (endpoint: mean survival time, dose: 100.0 mg/kg/injection, schedule: Q04DX003 (ip), vehicle: other) and 102 % of control (endpoint: mean survival time, dose: 200.0 mg/kg/injection, schedule: Q04DX003 (ip), vehicle: other).

In the case of `COc1cc(/C=N/N2C(=O)CSC2=S)ccc1OCc1ccccc1`, the T/C reads like this: under setting [7], 95 % of control; under setting [8], 91 % of control; under setting [9], 89 % of control.

Turning to `CCCN(CCC)c1ccc(C#N)cc1`, the T/C by setting is: (endpoint: mean survival time, dose: 100.0 mg/kg/injection, schedule: Q04DX003 (ip), vehicle: Klucel (hydroxypropylcellulose) (HPC)) 91 % of control; (endpoint: mean survival time, dose: 200.0 mg/kg/injection, schedule: Q04DX003 (ip), vehicle: Klucel (hydroxypropylcellulose) (HPC)) 92 % of control; (endpoint: mean survival time, dose: 400.0 mg/kg/injection, schedule: Q04DX003 (ip), vehicle: Klucel (hydroxypropylcellulose) (HPC)) 95 % of control.

Consider `Nc1ccnc(SCCCOc2ccccc2)n1`, for which the T/C is 104 % of control (endpoint: mean survival time, dose: 100.0 mg/kg/injection, schedule: Q04DX002 (ip), vehicle: saline with Tween-80); 101 % of control under setting [6]; 97 % of control (endpoint: mean survival time, dose: 400.0 mg/kg/injection, schedule: Q04DX002 (ip), vehicle: saline with Tween-80).

Consider `Nc1ccc2c(c1)CN1C(=O)c3ccccc3C1=N2`, for which the T/C (endpoint: median survival time, dose: 12.5 mg/kg/injection, schedule: Q01DX009 (ip), vehicle: saline with Tween-80) was 111 % of control; the T/C (endpoint: median survival time, dose: 25.0 mg/kg/injection, schedule: Q01DX009 (ip), vehicle: saline with Tween-80) was 115 % of control; the T/C (endpoint: median survival time, dose: 50.0 mg/kg/injection, schedule: Q01DX009 (ip), vehicle: saline with Tween-80) was 116 % of control; the T/C (endpoint: median survival time, dose: 100.0 mg/kg/injection, schedule: Q01DX009 (ip), vehicle: saline with Tween-80) is 108 % of control.

On to `O=c1oc(-c2ccc3c(c2)OCO3)nc2ccccc12`, for which the T/C was 91 % of control under setting [3] and 87 % of control under setting [4].

With `CCCCC(CC)CNC1=C(Cl)C(=O)c2ccccc2C1=O` (configuration not stated), the T/C was 98 % of control under setting [1], 106 % of control under setting [2] and 95 % of control under setting [3].

As to `CCC(N)c1ccc2c3c(cccc13)CC2` (configuration not stated), the T/C was 89 % of control under setting [7], 86 % of control under setting [8] and 89 % of control under setting [9].

Source of the values: PubChem BioAssay AID256 (DTP/NCI, 2004).
